Measurements as given in patent US7687465B2, “Therapeutic cancer vaccine” (Kraeftens Bekaempelse, priority 2003, dated 2010).
Ends that are not written are not given here.

biological target: T1, HLA-A2 (Homo sapiens, UniProt P04439, D140Y/D185E/D98H/E176V/E277Q/G131W/G231S/I119V/I121R/I166T/I218V/L300P/L318F/N151K/N90K/P208A/P217A/Q86G/Q94H/R138H/R169H/T345S); test: Assembly assay for peptide binding to class I MHC molecules; conditions: concentration of the peptide required for half maximal binding to HLA-A2; listed as MLIAP200
T1 construct: stabilization of the class 1 molecule after loading of peptide to the peptide transporter deficient cell line T2; endogenous in cells; host or cells: T2 (TAP-deficient human cell line), metabolically labelled with [35S]-methionine and lysed
Protocol: Assembly assays for binding of the synthetic peptides to class I MHC molecules metabolically labeled with [^35S]-methionine can be carried out as described below. It will be appreciated by the person skilled in the art that the protocol may be adopted for any peptide and any class I MHC molecule.
Briefly, TAP deficient cells were metabolically labeled with [^35S]-methionine (Amersham, Freiburg, Germany). The cells were lyzed in 0.5 ml lysis buffer (150 mM NaCl, 50 mM TrisHCl, 0.5% NP-40 (Fluka, Buchs, Switzerland), 5 mM EDTA, pH 7.5) with 0.5% Mega-9 (Sigma, St. Louis, USA) in the presence of protease inhibitors (2 mM PMSF, 5 mM iodoacetamide, 2 μg/ml pepstatin, 2 μg/ml leupeptin) with or without synthetic peptide (for a list of positive control peptides, see Table 2).
After 20 min of incubation, the cell nuclei were removed by centrifugation (5 min, 10,000 g) and 50 μl (10% v/v) freshly washed Staphylococcus aureus organisms (Pansorbin, Calbiochem, Nottingham, UK). The next day Pansorbin was removed by centrifugation (12 min, 16,000 g) and the appropriate monoclonal antibody was added at a final concentration of 10 μg/ml, incubated for 90 min, followed by addition of protein A-Sepharose (75 μl, 10% v/v) and incubation for 1 h. The beads were washed 4 times and stored at −20° C. until analysis by electrophoresis.
In the case of an assembly assay with the HLA class I-specific conformation-dependent monoclonal antibody W6/32, samples were eluted in reducing buffer (9.5 M urea, 2% NP-40, 5% 2-mercaptoethanol, 2% Ampholines, pH range 3.5-9.5 (Pharmacia Biotech, Uppsala, Sweden)) and focused for 16 h at 880 V on 5.5% polyacrylamide isoelectric focusing (IEF) gels^20,39.
Samples from assembly assays with allele-specific antibodies were eluted by boiling (5 min) in SDS reducing buffer (50 mM TrisHCl pH 6.8, 2% SDS, 5% 2-mercaptoethanol, 10% glycerol, 2.5% bromophenol blue) and electrophorezed on 12% SDS-PAGE gels (1 h at 200 V). All gels were fixed in 10% acetic acid with 5% methanol and dried onto 3 MM paper (Whatman, Maidstone, UK). MHC heavy chain bands were quantified using the Imagequant Phosphorimager program (Molecular Dynamics, Sunnyvale, Calif., USA). The intensity of the band is directly related to the amount of peptide-bound class I MHC complex recovered during the assay. C50 value (μM) as the concentration of the peptide required for half maximal binding to MHC may thus be determined. The binding affinities of the analysed peptides are determined according to their efficiency of stabilising the HLA class I molecules. The binding affinity is represented as the peptide concentration required to reach half-maximal stabilistation of appropriate HLA-molecule.
Assembly assays for binding of the synthetic peptides to class I MHC molecules metabolically labeled with [^35S]-methionine were carried out as described^15,16. The assembly assay is based on stabilization of the class 1 molecule after loading of peptide to the peptide transporter deficient cell line T2. Subsequently correctly folded stable MHC heavy chains are immunoprecipitated using conformation-dependent antibodies. After IEF electrophoresis, gels were exposed to phosphorImager screens, and peptide binding was quantitated using the Imagequant PhosphorImager program (Molecular Dynamics, Sunnyvale, Calif.).

C50 (μM) | Compound
did not bind | ELPTPRREV [ML-IAP200]

same assay, conditions: concentration of the peptide required for half maximal binding to HLA-A2; listed as MLIAP261

C50 (μM) | Compound
did not bind | SIVFVPCG [ML-IAP261]

same assay, conditions: concentration of the peptide required for half maximal binding to HLA-A2; read-out: C50

EC50 | Compound
10 µM | CC(C)C[C@H](NC(=O)[C@@H](N)CC(C)C)C(=O)N[C@@H](CCCNC(=N)N)C(=O)N[C@@H](CO)C(=O)N[C@@H](CCCCN)C(=O)NCC(=O)N[C@@H](CCCNC(=N)N)C(=O)N[C@@H](CC(=O)O)C(=O)N[C@@H](Cc1ccccc1)C(=O)N[C@H](C(=O)O)C(C)C [ML-IAP154]
20 µM | CC[C@H](C)[C@H](NC(=O)[C@@H]1CCCN1C(=O)[C@H](CS)NC(=O)[C@H](CC(C)C)NC(=O)[C@@H](N)CCC(N)=O)C(=O)N[C@@H](CS)C(=O)N[C@@H](CCCNC(=N)N)C(=O)N[C@@H](C)C(=O)N1CCC[C@H]1C(=O)N[C@H](C(=O)O)C(C)C [ML-IAP280]

The remaining lines, values behind:

Compound | EC50
CC(C)C[C@H](NC(=O)CNC(=O)[C@H](CC(C)C)NC(=O)[C@@H](NC(=O)[C@@H]1CCCN1C(=O)[C@H](CO)NC(=O)CNC(=O)[C@H](CC(C)C)NC(=O)[C@@H](N)CO)C(C)C)C(=O)O [ML-IAP34] | 1 µM
CC[C@H](C)[C@H](NC(=O)[C@@H](N)CCC(N)=O)C(=O)N[C@@H](CC(C)C)C(=O)NCC(=O)N[C@@H](CCC(N)=O)C(=O)N[C@@H](CC(C)C)C(=O)N[C@@H](CCCNC(=N)N)C(=O)N1CCC[C@H]1C(=O)N[C@@H](CC(C)C)C(=O)O [ML-IAP54] | 1 µM
CSCC[C@H](NC(=O)CN)C(=O)NCC(=O)N[C@@H](CO)C(=O)N[C@@H](CCC(=O)O)C(=O)N[C@@H](CCC(=O)O)C(=O)N[C@@H](CC(C)C)C(=O)N[C@@H](CCCNC(=N)N)C(=O)N[C@@H](CC(C)C)C(=O)O [ML-IAP83] | 30 µM
CC(C)C[C@H](NC(=O)[C@H](CCC(=O)O)NC(=O)[C@@H]1CCCN1C(=O)[C@@H]1CCCN1C(=O)[C@@H](NC(=O)[C@H](CCC(=O)O)NC(=O)[C@H](C)NC(=O)[C@@H](NC(=O)[C@H](CC(C)C)NC(=O)[C@@H]1CCCN1)[C@@H](C)O)C(C)C)C(=O)O [ML-IAP98] | > 100 µM
CC(C)C[C@H](NC(=O)[C@H](CCC(=O)O)NC(=O)[C@@H]1CCCN1C(=O)[C@@H]1CCCN1C(=O)[C@@H](NC(=O)[C@H](CCC(=O)O)NC(=O)[C@H](C)NC(=O)[C@@H](NC(=O)[C@@H](N)CC(C)C)[C@@H](C)O)C(C)C)C(=O)O [ML-IAP99] | 0.9 µM
